Measurements taken from patent publication US20220168309A1 (F-STAR THERAPEUTICS, INC., priority 2019, published 2022).
Read-outs that look alike come from different tables or passages of the source.

Target: STING (Homo sapiens, UniProt Q86WV6)
Test: STING antagonist activity, cell-based ISG54 promoter-reporter luciferase measurement of IRF activity (THP-1 dual / RAW-ISG cells)
Conditions: Antagonist Activity of Exemplary Compounds, cell line and agonist not given
How it was run: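 THP-1 dual or RAW-ISG cells (50,000/well) pretreated 1 h with compound (10 to 0.01 uM), then stimulated with SB 11285 (30 nM or 1 μM) or 2′3′-cGAMP (10 ug/mL or lipo mixture) for 18–20 h at 37° C. IRF-driven luciferase read by Quanti-Luc; % inhibition versus untreated or DMSO wells, IC50 by curve fit.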

Sequence of STING (Q86WV6 whole entry): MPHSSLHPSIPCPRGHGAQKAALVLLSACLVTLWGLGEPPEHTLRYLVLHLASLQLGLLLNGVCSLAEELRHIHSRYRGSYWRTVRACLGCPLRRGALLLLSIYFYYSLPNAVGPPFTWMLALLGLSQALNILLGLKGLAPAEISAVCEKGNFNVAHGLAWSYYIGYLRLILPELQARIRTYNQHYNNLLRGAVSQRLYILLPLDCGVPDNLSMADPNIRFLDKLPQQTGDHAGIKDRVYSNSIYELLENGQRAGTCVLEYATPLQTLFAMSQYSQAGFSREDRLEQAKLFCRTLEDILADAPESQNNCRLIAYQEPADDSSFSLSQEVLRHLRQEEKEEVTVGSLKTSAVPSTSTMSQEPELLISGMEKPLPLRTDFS

Compound	IC50 (read-out: IC50) [µM]	IC50 [µM]
Cc1nc2nc(Cl)nc(S(=O)(=O)C(C)C)c2n1CCCCCCCCCCCCCCCC(=O)OC[C@H]1COC(C)(C)O1 [Compound 132, (R)-(2,2-dimethyl-1,3-dioxolan-4-yl)methyl 16-(2-chloro-6-(isopropylsulfonyl)-8-methyl-7H-purin-7-yl)hexadecanoate]	0.001 to 1	
Cc1nc2nc(Cl)nc(S(=O)(=O)C(C)C)c2n1CCCCCCCCCCCCCCCC(=O)OC[C@H](O)CO [Compound 133, (R)-2,3-dihydroxypropyl 16-(2-chloro-6-(isopropylsulfonyl)-8-methyl-7H-purin-7-yl)hexadecanoate]	1 to 5	
Cc1nc2nc(Cl)nc(S(=O)(=O)C(C)C)c2n1CCCCCCCCCCCCCCCC(=O)OC[C@@H]1COC(C)(C)O1 [Compound 134, (S)-(2,2-dimethyl-1,3-dioxolan-4-yl)methyl 16-(2-chloro-6-(isopropylsulfonyl)-8-methyl-7H-purin-7-yl)hexadecanoate]	0.001 to 1	
Cc1nc2nc(Cl)nc(S(=O)(=O)C(C)C)c2n1CCCCCCCCCCCCCCCC(=O)OC[C@@H](O)CO [Compound 135, (S)-2,3-dihydroxypropyl 16-(2-chloro-6-(isopropylsulfonyl)-8-methyl-7H-purin-7-yl)hexadecanoate]	0.001 to 1	
Cc1nc2nc(Cl)nc([S+]([O-])C(C)C)c2n1CCCCCCCCCCN1CCOCC1 (stereo not drawn) [Compound 136, 4-(10-(2-chloro-6-(isopropylsulfinyl)-8-methyl-7H-purin-7-yl)decyl)morpholine]	0.001 to 1	
Cc1nc2nc(Cl)nc(S(=O)(=O)C(C)C)c2n1CCCCCCCCCCN1CCOCC1 [Compound 137, 4-(10-(2-chloro-6-(isopropylsulfonyl)-8-methyl-7H-purin-7-yl)decyl)morpholine]	1 to 5	
Cc1nc2nc(Cl)nc(S(=O)(=O)C(C)C)c2n1CCCCCCCCCCCCCCCC(=O)O [Compound 139, 16-(2-chloro-6-(isopropylsulfonyl)-8-methyl-7H-purin-7-yl)hexadecanoic acid]	0.001 to 1	
Cc1nc2nc(Cl)nc(S(=O)(=O)C(C)C)c2n1CCCCCCCCCCCCCCCc1nnnn1C [Compound 140, 2-chloro-6-(isopropylsulfonyl)-8-methyl-7-(15-(1-methyl-1H-tetrazol-5-yl)pentadecyl)-7H-purine]	0.001 to 1	
COC(=O)CCCCCCN(C)CCCCCCCCn1c(C)nc2nc(Cl)nc(Cl)c21 [Compound 141, Methyl 7-((8-(2,6-dichloro-8-methyl-7H-purin-7-yl)octyl)(methyl)amino)heptanoate]	0.001 to 1	
Cc1nc2nc(Cl)nc(S(=O)(=O)C(C)C)c2n1CCCCCCCCCCCCCCCCN1CCOCC1 [Compound 142]	0.001 to 1	
COC(=O)CCCCCO[C@@H]1CCN(CCCCCCn2c(C)nc3nc(Cl)nc(S(=O)(=O)C(C)C)c32)C1 [Compound 143, (3R)-1-(6-(2-chloro-6-(isopropylsulfonyl)-8-methyl-7H-purin-7-yl)hexyl)-3-((6-methoxy-6-oxohexyl)oxy)pyrrolidin-1-ium chloride]	1 to 5	
Cc1nc2nc(Cl)nc(S(=O)(=O)C(C)C)c2n1CCCCCCCCCCCCCCCC(=O)OCCO [Compound 144, 2-hydroxyethyl 16-(2-chloro-6-(isopropylsulfonyl)-8-methyl-7H-purin-7-yl)hexadecanoate]	0.001 to 1	
Cc1nc2nc(Cl)nc(S(=O)(=O)C(C)C)c2n1CCCCCCCCCCCCCCCC(=O)N1CCOCC1 [Compound 145, 16-(2-chloro-6-(isopropylsulfonyl)-8-methyl-7H-purin-7-yl)-1-morpholinohexadecan-1-one]	0.001 to 1	
Cc1nc2nc(Cl)nc(S(=O)(=O)CCO)c2n1CCCCCCCCCCCCCCCC(=O)OC(C)C [Compound 146, isopropyl 16-(2-chloro-6-((2-hydroxyethyl)sulfonyl)-8-methyl-7H-purin-7-yl)hexadecanoate]	0.001 to 1	
COC(=O)CCCCCCCCCCCCCCCn1c(C)nc2nc(Cl)nc(S(=O)(=O)CCN)c21 [Compound 147, methyl 16-(6-((2-aminoethyl)sulfonyl)-2-chloro-8-methyl-7H-purin-7-yl)hexadecanoate]	1 to 5	
COC(=O)[C@@H](NC(=O)CCCCCCCCCCCCCCCn1c(C)nc2nc(Cl)nc(S(=O)(=O)C(C)C)c21)C(C)C [Compound 148, methyl (16-(2-chloro-6-(isopropylsulfonyl)-8-methyl-7H-purin-7-yl)hexadecanoyl)-L-valinate]	0.001 to 1	
Cc1nc2nc(Cl)nc(S(=O)(=O)C(C)C)c2n1CCCCCCCCCCCCCCCC(N)=O [Compound 149, 16-(2-chloro-6-(isopropylsulfonyl)-8-methyl-7H-purin-7-yl)hexadecanamide]	0.001 to 1	
Cc1nc2nc(Cl)nc(S(=O)(=O)C(C)C)c2n1CCCCCCCCCCCCCCCC(=O)N(C)C [Compound 150, 16-(2-chloro-6-(isopropylsulfonyl)-8-methyl-7H-purin-7-yl)-N,N-dimethylhexadecanamide]	0.001 to 1	

Compound	IC50 (read-out: IC50) [µM]	IC50 [µM]
CC(=O)OCCCCCCCCn1c(C)nc2nc(Cl)nc(Cl)c21 [Compound 151, 8-(2,6-dichloro-8-methyl-7H-purin-7-yl)octyl acetate]		1 to 5
COC(=O)CCCCCCN(C)CCCCCCCCn1c(C)nc2nc(Cl)nc(S(=O)(=O)C(C)C)c21 [Compound 152, Methyl 7-((8-(2-chloro-6-(isopropylsulfonyl)-8-methyl-7H-purin-7-yl)octyl)(methyl)-amino)heptanoate]	1 to 5	
COC(=O)CCCN1CCN(CCCCCCn2c(C)nc3nc(Cl)nc(Cl)c32)CC1 [Compound 153, Methyl 4-(4-(6-(2,6-dichloro-8-methyl-7H-purin-7-yl)hexyl)piperazin-1-yl)butanoate]	1 to 5	
COC(=O)CCCCCCCCCCCCCCCn1c(CN2CCOCC2)nc2nc(Cl)nc(Cl)c21 [Compound 154, methyl 16-(2,6-dichloro-8-(morpholinomethyl)-7H-purin-7-yl)hexadecanoate]	0.001 to 1	
COC(=O)CCCCCCNCCCCCCCCn1c(C)nc2nc(Cl)nc(Cl)c21 [Compound 155, Methyl 7-((8-(2,6-dichloro-8-methyl-7H-purin-7-yl)octyl)amino)heptanoate]	0.001 to 1	
COC(=O)CCCCCOC1CCN(CCCCCCn2c(C)nc3nc(Cl)nc(Cl)c32)CC1 [Compound 156, Methyl 6-((1-(6-(2,6-dichloro-8-methyl-7H-purin-7-yl)hexyl)piperidin-4-yl)oxy)hexanoate]	1 to 5	
Cc1nc2nc(Cl)nc(Cl)c2n1CCCCCCCCCCCCCCCC#N [Compound 157, 16-(2,6-dichloro-8-methyl-7H-purin-7-yl)hexadecanenitrile]	0.001 to 1	
Cc1nc2nc(Cl)nc(S(=O)(=O)C(C)C)c2n1CCCCCCCCCCCCCCCC(=O)OCC1CC1 [Compound 158, Cyclopropylmethyl 16-(2-chloro-6-(isopropylsulfonyl)-8-methyl-7H-purin-7-yl)hexadecanoate]	0.001 to 1	
Cc1nc2nc(Cl)nc(S(=O)(=O)C(C)C)c2n1CCCCCCCCCCCCCCCC(=O)OCC(C)C [Compound 159, Isobutyl 16-(2-chloro-6-(isopropylsulfonyl)-8-methyl-7H-purin-7-yl)hexadecanoate]	1 to 5	
[2H]C([2H])([2H])OC(=O)CCCCCCCCCCCCCCCn1c(C)nc2nc(Cl)nc(S(=O)(=O)C(C)C)c21 [Compound 160, Methyl-d3 16-(2-chloro-6-(isopropylsulfonyl)-8-methyl-7H-purin-7-yl)hexadecanoate]	0.001 to 1	
COC(=O)CCCCCCCCCCCCCCn1c(C)nc2nc(Cl)nc(Cl)c21 [Compound 161, Methyl 15-(2,6-dichloro-8-methyl-7H-purin-7-yl)pentadecanoate]	0.001 to 1	
COC(=O)CCCCCCCCCCCCCCn1c(C)nc2nc(Cl)nc(S(=O)(=O)C(C)C)c21 [Compound 162, Methyl 15-(2-chloro-6-(isopropylsulfonyl)-8-methyl-7H-purin-7-yl)pentadecanoate]	0.001 to 1	
Cc1nc2nc(Cl)nc(Cl)c2n1CCCCCCCCCCCCCCCCN [Compound 163, 16-(2,6-dichloro-8-methyl-7H-purin-7-yl)hexadecan-1-amine]	0.001 to 1	
Cc1nc2nc(Cl)nc(S(=O)(=O)C(C)C)c2n1CCCCCCCCCCCCCCCC#N [Compound 164, 16-(2-chloro-6-(isopropylsulfonyl)-8-methyl-7H-purin-7-yl)hexadecanenitrile]	0.001 to 1	
Cc1nc2nc(Cl)nc(S(=O)(=O)C(C)C)c2n1CCCCCCCCCCCCCCCc1n[nH]c(=O)o1 [Compound 165, 5-(15-(2-chloro-6-(isopropylsulfonyl)-8-methyl-7H-purin-7-yl)pentadecyl)-1,3,4-oxadiazol-2(3H)-one]	0.001 to 1	
CC(=O)NCCCCCCCCCCCCCCCCn1c(C)nc2nc(Cl)nc(Cl)c21 [Compound 166, N-(16-(2,6-dichloro-8-methyl-7H-purin-7-yl)hexadecyl)acetamide]	0.001 to 1	
Cc1nc2nc(Cl)nc(S(=O)(=O)C(C)C)c2n1CCCCCCCCCCCCCCCc1noc(=O)n1C [Compound 167, 3-(15-(2-chloro-6-(isopropylsulfonyl)-8-methyl-7H-purin-7-yl)pentadecyl)-4-methyl-1,2,4-oxadiazol-5(4H)-one]	0.001 to 1	
COC(=O)CCCCCCNCCCCCCCCn1c(C)nc2nc(Cl)nc(S(=O)(=O)C(C)C)c21 [Compound 168, methyl 7-((8-(2-chloro-6-(isopropylsulfonyl)-8-methyl-7H-purin-7-yl)octyl)amino)heptanoate]	0.001 to 1	
